PubChem BioAssay (NCI)
Values joined by “and” are separate entries in the source; they are usually repeats but may differ in a detail not shown here. Identical values can stand only once.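 Results reflect a 48-hour exposure of cells in 96-well plates to compound at five concentrations. GI50 = concentration required for 50% inhibition of growth. Definition used: TGI = concentration required for complete inhibition of growth.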

Key:
Test in all cases: inhibition of tumour cell growth, NCI panel, 48 h
[1] = system: 786-0 renal
[2] = system: SK-MEL-5 melanoma
[3] = system: HL-60(TB) leukemia
[4] = system: SW-620 colon
[5] = system: HCT-116 colon
[6] = system: LOX IMVI melanoma
[7] = system: SF-539 CNS
[8] = system: NCI-H226 lung
[9] = system: RPMI-8226 leukemia
[10] = system: HT29 colon

| Structure (SMILES) | GI50 [1] | TGI [1] | GI50 [2] | TGI [2] | GI50 [3] | TGI [3] | GI50 [4] | TGI [4] | GI50 [5] | TGI [5] | GI50 [6] | TGI [6] | GI50 [7] | TGI [7] | GI50 [8] | TGI [8] | GI50 [9] | TGI [9] | GI50 [10] | TGI [10] |
| --- | --- | --- | --- | --- | --- | --- | --- | --- | --- | --- | --- | --- | --- | --- | --- | --- | --- | --- | --- | --- |
| COc1ccc2cc(C(=O)N3CCC([C@@H](C)C(=O)NCc4ccc5c(c4)OCO5)CC3)[nH]c2c1 | 36.7 µM | > 100 µM | > 100 µM | > 100 µM | > 100 µM | > 100 µM | > 100 µM | > 100 µM | > 100 µM | > 100 µM | 50.1 µM | > 100 µM | > 100 µM | > 100 µM | > 100 µM | > 100 µM | > 100 µM | > 100 µM | > 100 µM | > 100 µM |
| COc1ccc2c(c1)c1ccc3c(c1n2C)C(=O)C=CC3=O | – | 14.7 µM | – | 43.6 µM | – | 4.94 µM | – | 10.7 µM | – | 14 µM | – | 14.9 µM | – | 28 µM | – | 32.8 µM | – | 7.35 µM | – | 34.9 µM |
| COc1cc(OCCCN2CCCC2)ccc1Nc1ncc(Cl)c(Nc2ccccc2P(C)(C)=O)n1 | 2.7 µM | 11.6 µM | 3.71 µM | 15.8 µM | 1.36 µM | 6.19 µM | 1.37 µM | 5.36 µM | 1.74 µM | 7.24 µM | 1.32 µM | 4.4 µM | 3.49 µM | 12.8 µM | 1.59 µM | 6.45 µM | 2.68 µM | 12.2 µM | 0.521 µM | 3.79 µM |
| CCCCCCCC(=O)Nc1nc2[nH]c(CN3CCN(Cc4cccc(I)c4)CC3)c(CN3CCN(Cc4cccc(I)c4)CC3)c2c(=O)[nH]1 | 0.793 µM | 1.5 µM | 0.973 µM | 1.9 µM | 0.924 µM | 2.27 µM | 0.848 µM | 1.63 µM | 0.848 µM | 1.59 µM | 0.762 µM | 1.44 µM | 0.88 µM | 1.61 µM | 1.16 µM | 2.59 µM | 0.531 µM | 1.81 µM | 0.998 µM | 2.13 µM |
| N[C@@H](Cc1c[nH]c2ccccc12)C(=O)NC1CCN(Cc2c[nH]c3ccc(Cl)cc23)CC1 | 11.4 µM | 24.9 µM | 13.1 µM | 25.9 µM | 7.04 µM | 24.4 µM | 4.79 µM | 16.8 µM | 3.87 µM | 12.6 µM | 2.77 µM | 8.95 µM | 5.62 µM | 20.2 µM | 15.4 µM | 34.1 µM | 6.23 µM | 23.3 µM | 10.8 µM | 23.5 µM |
| Cn1cnc(SC2=CC(=O)C=C3S[C@H]4C[C@@]23c2c(c(O)c3c5c2=NCCC=5C=N3)N4)c1CC(N)C(=O)O (stereo partly specified) | 13.6 µM | 26.8 µM | 14.5 µM | 27.6 µM | 3.18 µM | 8.27 µM | – | 9.52 µM | 2.24 µM | 4.88 µM | 4.64 µM | 18.6 µM | 16.6 µM | 30.8 µM | 15.8 µM | 33.8 µM | 16.3 µM | > 100 µM | 2.18 µM | 11.7 µM |
| Nc1ccc(C(=O)CC2(O)C(=O)Nc3ccccc32)cc1 (stereo unspecified) | – | > 100 µM | – | > 100 µM | – | > 100 µM | – | > 100 µM | – | > 100 µM | – | > 100 µM | – | > 100 µM | – | > 100 µM | – | > 100 µM | – | > 100 µM |
| COc1cccc(/C=C2\N=C(Cl)OC2=O)c1O | – | > 100 µM | – | > 100 µM | – | > 100 µM | – | > 100 µM | – | > 100 µM | – | > 100 µM | – | > 100 µM | – | > 100 µM | – | > 100 µM | – | > 100 µM |
| CC(=O)N(N=O)c1ccc(N(N=O)C(C)=O)cc1 | – | > 100 µM | – | > 100 µM | – | > 100 µM | – | > 100 µM | – | > 100 µM | – | > 100 µM | – | > 100 µM | – | > 100 µM | – | > 100 µM | – | > 100 µM |
| COC(=O)C(/C(=N/N)C(=O)Nc1cc(Cl)ccc1Cl)c1nc2ccc([N+](=O)[O-])cc2[nH]c1=O (stereo unspecified) | – | > 100 µM | – | > 100 µM | – | > 100 µM | – | > 100 µM | – | > 100 µM | – | > 100 µM | – | > 100 µM | – | > 100 µM | – | > 100 µM | – | > 100 µM |
| C[C@]12CC[C@@H]3c4ccc(O)cc4CC[C@H]3[C@@H]1CC(Cc1ccccc1)(Cc1ccccc1)C2=O | 13.6 µM | 26.7 µM | 17.9 µM | 31.8 µM | 4.75 µM | 20.9 µM | 14.2 µM | 30 µM | 8.59 µM | 20.7 µM | 12.7 µM | 27.2 µM | 18.6 µM | 36.8 µM | 16 µM | 31.3 µM | 5.57 µM | 23.5 µM | 6.04 µM | 20.6 µM |
| NC(=O)c1ccc(I)c([N+](=O)[O-])c1 | > 100 µM | > 100 µM | > 100 µM | > 100 µM | 29.9 µM | > 95.7 µM | > 100 µM | > 100 µM | > 100 µM | > 100 µM | 44.5 µM | > 100 µM | > 100 µM | > 100 µM | > 100 µM | > 100 µM | 50.1 µM | > 100 µM | 58 µM | > 100 µM |
| COc1ccc(NC(=O)c2ccc(C(F)(F)F)nc2Nc2ccc(Cl)cc2C)cc1Cl | 9.41 µM | 23.1 µM | 4.09 µM | 18.7 µM | 2.4 µM | 5.37 µM | 4.09 µM | 14.7 µM | 3.08 µM | 13.1 µM | 3.96 µM | 13.5 µM | 9.01 µM | 23.5 µM | 2.99 µM | 14.4 µM | 2.07 µM | 4.88 µM | 3.57 µM | 14 µM |
| CN1C(c2ccccc2)CC(=NO)CC1c1ccccc1 (stereo unspecified) | 95.7 µM | > 100 µM | 71.8 µM | > 100 µM | 22 µM | 40.7 µM and 68 µM | 43 µM | > 100 µM | 33.9 µM | 33.6 µM | – | 40.7 µM | – | > 100 µM | – | > 100 µM | 33 µM | 55.5 µM | 34.8 µM | > 100 µM |
